Values of other authors, collected in patent publication US7989600B2, “Macrolide compounds containing biotin and photo-affinity group for macrolide target identification” (GlaxoSmithKline Istrazivacki Centar Zagreb D.O.O., priority 2005, dated 2011).

Test system: α1-acid glycoprotein from serum
Settings: dialysis in combination HPLC methods; Castearena et al., J Chemother. 1995

binding to α1-acid glycoprotein from serum: specifically binds
Compound: CC[C@H]1OC(=O)[C@H](C)[C@@H](O[C@H]2C[C@@](C)(OC)[C@@H](O)[C@H](C)O2)[C@H](C)[C@@H](O[C@@H]2O[C@H](C)C[C@H](N(C)C)[C@H]2O)[C@](C)(O)C[C@@H](C)CN(C)[C@H](C)[C@@H](O)[C@]1(C)O [azithromycin]
